Assay results published in publication PMC8205039, “Synthesis and biological evaluation of 4-phenoxy-phenyl isoxazoles as novel acetyl-CoA carboxylase inhibitors” (Journal of Enzyme Inhibition and Medicinal Chemistry, 2021).

Experiments:
HepG2 cells [1] = assay: MTT assay, HepG2; type: cell-based; conditions: Homo sapiens, 72 h, mean ± SD (n = 3)
Method: (§1) The cytotoxicity of target compounds was assessed by MTT assay. Briefly, cells were seeded in 96-well plates at a density of 2500–3000 per well and incubated for 24 h in a CO2 incubator. Then, the cells were treated with candidate compounds at seven different concentrations for 72 h. At the end of treatment, the MTT reagent (5 mg/mL) was added to determine the cell viability. After 4 h of incubation, the resulting medium was removed, and 100 µL of DMSO was added to dissolve the formed formazan. Finally, the absorbance at 550 nm was measured by a microplate reader (Varioskan LUX, […]), with the IC50 values calculated using GraphPad Prism 5 software (GraphPad Software, La Jolla, CA, USA).

MDA-MB-231 cells [2] = assay: MTT assay, MDA-MB-231; type: cell-based; conditions: Homo sapiens, 72 h, mean ± SD (n = 3)
Method: as §1

MDA-MB-231 cells [3] = assay: MTT assay, MDA-MB-231; type: cell-based; conditions: Homo sapiens, single concentration of 10 µM (Figure S2), read-out: inhibitory rate, MDA-MB-231
HepG2 cells [4] = assay: MTT assay, HepG2; type: cell-based; conditions: Homo sapiens, single concentration of 10 µM (Figure S2), read-out: inhibitory rate, HepG2
MDA-MB-231 cells [5] = assay: Cell-cycle assay (PI flow cytometry); type: cell-based, human; conditions: 48 h
Method: MDA-MB-231 cells were seeded on 6-well plates (3 × 10^4 cells/well) and incubated with indicated concentrations of 6g (0.75, 1.5, and 3 µM) and 6l (0.1, 0.2, and 0.4 µM) for 48 h in a 5% CO2 incubator. Then, the cells were collected by trypsinization and centrifugation, followed by fixing in 70% pre-cooled ethanol overnight. Finally, the cells were stained with PI/RNase A according to the manual and measured by flow cytometer (Facs Canto II, Becton Dickinson, San Jose, CA’, USA)[35].

[6] = Cell viability of non-cancerous HUVEC; type: cell-based, human; conditions: human, HUVEC cells (non-cancerous)
Method: (§2) To investigate the selectivity of the synthesised compounds towards cancer cells, the non-cancerous HUVEC cell line was selected for testing.
as §1

HUVEC = assay: Cell viability of non-cancerous HUVEC; type: cell-based, human; conditions: 10 μM
Method: as §2, §1

A549 cells [7] = assay: MTT assay, A549; type: cell-based; conditions: Homo sapiens, single concentration of 10 µM (Figure S2), read-out: inhibitory rate, A549
[8] = system: intracellular malonyl-CoA levels in MDA-MB-231 cells; assay: Measurement of malonyl-CoA levels (Elisa); type: cell-based, human; conditions: maximum test concentration, 48 h
Method: MDA-MB-231 cells were seeded on 6-well plates and treated with various concentrations of 6g and 6l for 48 h. Cells were collected, washed with PBS, and lysed with 1% Triton X-100. The lysates were centrifuged at 4 °C for 15 min. The malonyl-CoA levels were determined using Elisa assay kits (Ruixin Biotech, Beijing, China).

hACC1 = biological target: T1, hACC1 (Homo sapiens, UniProt Q13085); assay: ACC inhibitory assay (ADP-Glo luminescent ADP detection); type: biochemical; conditions: for inhibition at 0.1 µM: hACC1, 0.1 μM, mean of two independent experiments (Table 2), read-out: IRs (%) 0.1 μM; for IC50: hACC1, mean ± SD
T1 construct: purchased BPS Biosciences 50200
Method: The hACC1 inhibitory activity of target compounds was evaluated using the ADP-Glo^TM kinase assay according to our previous report. In brief, 4.5 µL of working solution containing recombinant ACC1 (BPS Biosciences, 50200) and 0.5 µL of diluted compound solution were added to a 384-well Optiplate plate (Perkin Elmer, 6007290, PerkinElmer, Waltham, MA, USA), and incubated at room temperature for 15 min. Then, 5 µL of substrate mixture was added to the 384-well plate to start the reaction. After incubating for 60 min at room temperature, 10 µL of ADP-Glo reagents were added to the 384-well plate, and incubated for another 40 min to deplete the remaining ATP. Finally, 20 µL of kinase detection reagents were added to the plate and incubated for 40 min to convert ADP to ATP. The luminescent signal of ATP was determined using an Envision multifunction reader (Perkin Elmer, 2104–0010, PerkinElmer, Waltham, MA, USA). The IC50 values were calculated using GraphPad Prism 5 software (GraphPad Software, La Jolla, CA, USA).

MDA-MB-231 cells [9] = assay: Cell apoptosis assay (Annexin V-FITC/PI flow cytometry); type: cell-based, human; conditions: 48 h
Method: MDA-MB-231 cells were plated on 6-well plates (3 × 10^4 cells/well) and incubated with various concentrations of 6g (0.75, 1.5, and 3 µM) and 6l (0.1, 0.2, and 0.4 µM) for 48 h. Then, cells were harvested by trypsinization and centrifugation, followed by staining with annexin-V-FITC in binding buffer for 15 min protected from light. Subsequently, the cells were stained with PI, and the proportion of apoptotic cells was measured by flow cytometer (Facs Canto II, Becton Dickinson, San Jose, CA, USA)[36].

A549 cells [10] = assay: MTT assay, A549; type: cell-based; conditions: Homo sapiens, 72 h, mean ± SD (n = 3)
Method: as §1

Row | IC50 (HepG2 cells [1]) [µM] | IC50 (MDA-MB-231 cells [2]) [µM] | inhibition at 0.1 µM (hACC1) [%] | IC50 (hACC1) [nM] | IC50 (A549 cells [10]) [µM] | melting point [°C] | Structure (SMILES) | inhibition at 10 µM (MDA-MB-231 cells [3]) [%] | inhibition at 10 µM (HepG2 cells [4]) [%] | viability at 72 h, 10 µM [6] [%] | IRs towards HUVEC (HUVEC) | inhibition at 10 µM (A549 cells [7]) [%] | reduction of intracellular malonyl-CoA levels compared to the control group [8] [%] | also measured
1 | 1.73 ± 0.55 | 1.5 ± 0.58 | 51.4 | 99.8 ± 3.7 | 1.1 ± 0.12 | 131.5 to 132.5 | CC(=O)NC(C)c1cc(-c2ccc(Oc3ccc(OCC4CC4)cc3)cc2)no1 (centres unmarked) [Compound 6g, N-(1-(3-(4-(4-(Cyclopropylmethoxy)phenoxy)phenyl)isoxazol-5-yl)ethyl)acetamide] | > 80 | > 80 | 87.3 ± 6.19 | less than 20% | > 80 | ~23.59 | cells at G0/G1 phase (MDA-MB-231 cells [5]; 0.75 μM): 69.37%; cells at G2/M phase (MDA-MB-231 cells [5]; 0.75 μM): 12.01%; cells at S phase (MDA-MB-231 cells [5]; 0.75 μM): 18.62%; cells at G0/G1 phase (MDA-MB-231 cells [5]; 1.5 μM): 73.66%; cells at G2/M phase (MDA-MB-231 cells [5]; 1.5 μM): 10.51%; cells at S phase (MDA-MB-231 cells [5]; 1.5 μM): 15.83%; cells at G0/G1 phase (MDA-MB-231 cells [5]; 3 μM): 79.97%; cells at G2/M phase (MDA-MB-231 cells [5]; 3 μM): 9.96%; cells at S phase (MDA-MB-231 cells [5]; 3 μM): 10.08%; total percentage of the early and late apoptotic cells (MDA-MB-231 cells [9]; 0.75 μM): 8.34%; total percentage of the early and late apoptotic cells (MDA-MB-231 cells [9]; 1.5 μM): 13.83%; total percentage of the early and late apoptotic cells (MDA-MB-231 cells [9]; 3 μM): 20.25%
2 | 0.26 ± 0.02 | 0.21 ± 0.01 | 37.9 | 279 ± 13.1 | 0.22 ± 0.07 | 164.5 to 165.5 | CC(NC(=O)Cc1ccccc1)c1cc(-c2ccc(Oc3ccccc3)cc2)no1 (centres unmarked) [Compound 6l, N-(1-(3-(4-Phenoxyphenyl)isoxazol-5-yl)ethyl)-2-phenylacetamide] | > 80 | > 80 | 89.5 ± 3.21 | less than 20% | > 80 | ~25.85 | cells at G0/G1 phase (MDA-MB-231 cells [5]; 0.1 μM): 71.79%; cells at G2/M phase (MDA-MB-231 cells [5]; 0.1 μM): 12.01%; cells at S phase (MDA-MB-231 cells [5]; 0.1 μM): 16.20%; cells at G0/G1 phase (MDA-MB-231 cells [5]; 0.2 μM): 76.79%; cells at G2/M phase (MDA-MB-231 cells [5]; 0.2 μM): 8.79%; cells at S phase (MDA-MB-231 cells [5]; 0.2 μM): 14.42%; cells at G0/G1 phase (MDA-MB-231 cells [5]; 0.4 μM): 81.93%; cells at G2/M phase (MDA-MB-231 cells [5]; 0.4 μM): 5.32%; cells at S phase (MDA-MB-231 cells [5]; 0.4 μM): 12.76%; Q2 (upper right quadrant, late apoptotic cells) (MDA-MB-231 cells [9]; 0.4 μM): 17.50%; Q3 (bottom right quadrant, early apoptotic cells) (MDA-MB-231 cells [9]; 0.4 μM): 12.20%
